Test results: patent publication EP2881391A1, “Spiroindoline carbocycle derivatives and pharmaceutical compositions thereof” (Bayer Pharma Aktiengesellschaft, priority 2013, dated 2015)

Target: T1, human GnRH receptor (Homo sapiens, UniProt P30968)
T1 construct: line established by Prof; Thomas Gudermann; host or cells: CHO cells
T1 sequence (P30968 1-328): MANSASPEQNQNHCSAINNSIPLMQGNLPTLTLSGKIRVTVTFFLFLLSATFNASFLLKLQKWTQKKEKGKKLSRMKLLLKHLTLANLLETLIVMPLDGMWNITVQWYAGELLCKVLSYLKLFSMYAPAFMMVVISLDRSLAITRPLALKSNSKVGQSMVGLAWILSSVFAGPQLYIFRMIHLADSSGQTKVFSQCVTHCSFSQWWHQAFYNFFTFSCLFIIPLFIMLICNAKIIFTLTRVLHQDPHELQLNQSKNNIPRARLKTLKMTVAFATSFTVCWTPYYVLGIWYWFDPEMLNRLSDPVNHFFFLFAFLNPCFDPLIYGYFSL
Assay: IP-One HTRF assay (inhibition of GnRH-R activation by buserelin)
Format: cell-based
Conditions: IP-One HTRF assay with buserelin (at EC80) stimulation; CHO cells stably expressing human GnRH receptor; tested 20 µM to 1 nM; read-out: Potency IC50
Description: By using homogenous time-resolved fluorescence resonance energy transfer (HTRF), the generation of one component of the GnRH-R signalling cascade can be measured. After stimulation of CHO cells stably expressing human GnRH receptor (established by Prof. Thomas Gudermann, currently University of Marburg, Germany; supplied as frozen cell aliquots by Cell Culture Services, Hamburg, Germany) with the EC80 of the GnRH agonist buserelin, Gq protein-coupled receptor signalling cascade is activated resulting in PLC-dependent cleavage of PIP2 to Inositol-1,4,5-triphosphate (IP3) and Diacylglycerol. The second messenger IP3 is degraded intracellularly to myo-inositol. Inhibition of the final degradation step from Inositol-1-phosphate (IP1) to myo-inositol by addition of lithium chloride leads to accumulation of IP1 in the cells. In cell lysates, IP1 can be detected via an antibody-based HTRF detection technology, where IP1 can displace the FRET acceptor IP1-d2 from binding by Terbium-labelled anti-IP1 antibody as donor resulting in a signal decrease. Compounds were tested for their capability of inhibiting GnRH-R activation by buserelin. For all IP-One HTRF® assays reagents of Cisbio Bioassays (IP-One Tb Jumbo kit, #62IPAPEJ; Cisbio Bioassays, Bagnols sur Cèze Cedex, France) were used.
For the assay, frozen cell aliquots were thawed and a cell suspension (3.33x10^6 cells/ml) containing IP1-d2 (dilution 1:40) was prepared and incubated at 37°C. After 1 h 3 µl of the cell suspension were added to 50 nl of a 100-fold concentrated solution of the test compound in DMSO pre-dispensed in a well of a white low-volume 384-well microtiter plate (Greiner Bio-One, Frickenhausen, Germany). The mixture was incubated for 20 min at 22°C to allow for pre-binding of the test compound to the GnRH-R. The receptor signaling cascade was stimulated by addition of 2 µl buserelin or LHRH (at EC50 or EC80) in stimulation buffer (10 mM Hepes pH 7.4, 1 mM CaCl2, 0.5 mM MgCl2, 4.2 mM KCI, 146 mM NaCl, 5.5 mM α-D-Glucose, 0.05% BSA, 125 mM LiCl (final assay concentration 50 mM) in aqua dest.). Plates were incubated for 1 h at 37°C and 5% carbon dioxide before the cells were lysed by adding 3 µl Terbium-labelled anti-IP1 antibody (1:40) diluted in Conjugate & Lysis buffer as supplied with the kit. After an incubation for 1 h at 22°C to enable complete cell lysis and antibody binding to free IP1 or IP1-d2, plates were measured in an HTRF reader, e.g. a RUBYstar, PHERAstar (both BMG Labtechnologies, Offenburg, Germany) or a Viewlux (PerkinElmer LAS, Rodgau-Jügesheim, Germany). From the fluorescence emissions at 665 nm (FRET) and at 620 nm (background signal of Terbium-antibody), the ratio (emission at 665 nm divided by emission at 620 nm) was calculated and the data were normalized (reaction without test compound = 0% inhibition; all other assay components except agonist = 100% inhibition). On the same microtiter plate, compounds were tested at 10 different concentrations in the range of 20 µM to 1 nM (20 µM, 6.7 µM, 2.2 µM, 0.74 µM, 0.25 µM, 82 nM, 27 nM, 9.2 nM, 3.1 nM and 1 nM; dilution series prepared before the assay at the level of the 100-fold conc. stock solutions by serial 1:3 dilutions in 100% DMSO) in duplicate values for each concentration. By using an in-house software, the IC50 values were calculated by a 4 parameter fit. The data reveal that the compounds of the present invention have antagonist activities on the human GnRH receptor. Within the meaning of the present invention the antagonist activity is reflected by the ability of a compound of the invention to antagonize human GnRH receptor stimulation in IP-One HTRF® assay at least three times the standard deviation over the background level.

Row | Compound | IC50 [nM]
1 | O=C(NCc1ncccc1Cl)c1ccc2c(c1)C1(CCC(O)(C(F)(F)F)CC1)C(C1CC1)N2S(=O)(=O)c1ccc(F)cc1 (racemic) [Example 1, N-[(3-chloropyridin-2-yl)methyl]-2'-cyclopropyl-1'-[(4-fluorophenyl)sulfonyl]-4-hydroxy-4-(trifluoromethyl)-1',2'-dihydrospiro[cyclohexane-1,3'-indole]-5'-carboxamide] | 354
2 | O=C1CCC2(CC1)c1cc(C(=O)NCc3ccccc3Cl)ccc1N(S(=O)(=O)c1ccc(F)cc1)C2C1CC1 (racemic) [Example 3, N-(2-chlorobenzyl)-2'-cyclopropyl-1'-[(4-fluorophenyl)sulfonyl]-4-oxo-1',2'-dihydrospiro[cyclohexane-1,3'-indole]-5'-carboxamide] | 46.8
3 | COC(=O)c1cccc(NC(=O)c2ccc3c(c2)C2(CCC(O)(C(F)(F)F)CC2)C(C2CC2)N3S(=O)(=O)c2ccc(F)cc2)c1 (racemic) [Example 30, methyl 3-[({2'-cyclopropyl-1'-[(4-fluorophenyl)sulfonyl]-4-hydroxy-4-(trifluoromethyl)-1',2'-dihydrospiro[cyclohexane-1,3'-indol]-5'-yl}carbonyl)amino] benzoate] | 227
4 | O=C(NCc1ncccc1Cl)c1ccc2c(c1)C1(CCC(O)(C(F)(F)F)CC1)C(C1CC1)N2S(=O)(=O)c1ccc(F)cc1 (single isomer, unassigned) [Example 1-2] | 135
5 | O=C1CCC2(CC1)c1cc(C(=O)NCc3ccccc3Cl)ccc1N(S(=O)(=O)c1ccc(F)cc1)C2C1CC1 (single isomer, unassigned) [Example 3-1] | 41.3
6 | O=C1CCC2(CC1)c1cc(C(=O)NCc3ccccc3Cl)ccc1N(S(=O)(=O)c1ccc(F)cc1)C2C1CC1 (single isomer, unassigned) [Example 3-2] | 1020
7 | COC(=O)c1cccc(NC(=O)c2ccc3c(c2)C2(CCC(O)(C(F)(F)F)CC2)C(C2CC2)N3S(=O)(=O)c2ccc(F)cc2)c1 (single isomer, unassigned) [Example 30-1] | 142
8 | COC(=O)c1cccc(NC(=O)c2ccc3c(c2)C2(CCC(O)(C(F)(F)F)CC2)C(C2CC2)N3S(=O)(=O)c2ccc(F)cc2)c1 (single isomer, unassigned) [Example 30-2] | 1590
9 | O=C(Nc1ccon1)c1ccc2c(c1)C1(CCC(O)(C(F)(F)F)CC1)C(C1CC1)N2S(=O)(=O)c1ccc(F)cc1 (single isomer, unassigned) [Example 56-1] | 215
10 | O=C(Nc1ccon1)c1ccc2c(c1)C1(CCC(O)(C(F)(F)F)CC1)C(C1CC1)N2S(=O)(=O)c1ccc(F)cc1 (single isomer, unassigned) [Example 56-2] | 17400
11 | O=C(NCc1ccccc1Cl)c1ccc2c(c1)C1(CCC(O)(C(F)(F)F)CC1)C(C1CC1)N2S(=O)(=O)c1ccc(F)cc1 (single isomer, unassigned) [Example 62-1] | 101
12 | O=C(NCc1ccccc1Cl)c1ccc2c(c1)C1(CCC(O)(C(F)(F)F)CC1)C(C1CC1)N2S(=O)(=O)c1ccc(F)cc1 (single isomer, unassigned) [Example 62-2] | 3280
13 | O=C(NCc1ncccc1C(F)(F)F)c1ccc2c(c1)C1(CCC(O)(C(F)(F)F)CC1)C(C1CC1)N2S(=O)(=O)c1ccc(F)cc1 (single isomer, unassigned) [Example 65-2] | 116
14 | O=C(NCc1ncccc1C(F)(F)F)c1ccc2c(c1)C1(CCC(O)(C(F)(F)F)CC1)C(C1CC1)N2S(=O)(=O)c1cccc(C(=O)N2CCC2)c1 (single isomer, unassigned) [Example 66-2] | 612
15 | O=C(NCc1ccccc1Cl)c1ccc2c(c1)C1(CCC(O)CC1)C(C1CC1)N2S(=O)(=O)c1ccc(F)cc1 (centres unmarked) [Example 2, N-(2-chlorobenzyl)-2'-cyclopropyl-1'-[(4-fluorophenyl)sulfonyl]-4-hydroxy-1',2'-dihydrospiro[cyclohexane-1,3'-indole]-5'-carboxamide] | 60.7
16 | CC1(O)CCC2(CC1)c1cc(C(=O)NCc3ccccc3Cl)ccc1N(S(=O)(=O)c1ccc(F)cc1)C2C1CC1 (centres unmarked) [Example 4, N-(2-chlorobenzyl)-2'-cyclopropyl-1'-[(4-fluorophenyl)sulfonyl]-4-hydroxy-4-methyl-1',2'-dihydrospiro[cyclohexane-1,3'-indole]-5'-carboxamide] | 73.3
17 | O=C(NCc1ccccc1Cl)c1ccc2c(c1)C1(CCC(=NO)CC1)C(C1CC1)N2S(=O)(=O)c1ccc(F)cc1 (centres unmarked) [Example 5, N-(2-chlorobenzyl)-2'-cyclopropyl-1'-[(4-fluorophenyl)sulfonyl]-4-(hydroxyimino)-1',2'-dihydrospiro[cyclohexane-1,3'-indole]-5'-carboxamide] | 65.7
18 | O=C(NCc1ccccc1Cl)c1ccc2c(c1)C1(CCC(F)(F)CC1)C(C1CC1)N2S(=O)(=O)c1ccc(F)cc1 (centres unmarked) [Example 6, N-(2-chlorobenzyl)-2'-cyclopropyl-4,4-difluoro-1'-[(4-fluorophenyl)sulfonyl]-1',2'-dihydrospiro[cyclohexane-1,3'-indole]-5'-carboxamide] | 489
19 | O=C(NCc1ncc(C(F)(F)F)cc1Cl)c1ccc2c(c1)C1(CCC(O)CC1)C(C1CC1)N2S(=O)(=O)c1ccc(F)cc1 (centres unmarked) [Example 7, N-{[3-chloro-5-(trifluoromethyl)pyridin-2-yl]methyl}-2'-cyclopropyl-1'-[(4-fluorophenyl)sulfonyl]-4-hydroxy-1',2'-dihydrospiro[cyclohexane-1,3'-indole]-5'-carboxamide] | 52.1
20 | O=C1CCC2(CC1)c1cc(C(=O)NCc3ncc(C(F)(F)F)cc3Cl)ccc1N(S(=O)(=O)c1ccc(F)cc1)C2C1CC1 (centres unmarked) [Example 8, N-{[3-chloro-5-(trifluoromethyl)pyridin-2-yl]methyl}-2'-cyclopropyl-1'-[(4-fluorophenyl)sulfonyl]-4-oxo-1',2'-dihydrospiro[cyclohexane-1,3'-indole]-5'-carboxamide] | 57.4
21 | COC(=O)c1cccc(S(=O)(=O)N2c3ccc(C(=O)NCc4ccccc4Cl)cc3C3(CCCCC3)C2C2CC2)c1 (centres unmarked) [Example 9, methyl 3-({5'-[(2-chlorobenzyl)carbamoyl]-2'-cyclopropylspiro[cyclohexane-1,3'-indol]-1'(2'H)-yl}sulfonyl)benzoate] | 2290
22 | O=C(O)c1cccc(S(=O)(=O)N2c3ccc(C(=O)NCc4ccccc4Cl)cc3C3(CCCCC3)C2C2CC2)c1 (centres unmarked) [Example 10, 3-({5'-[(2-chlorobenzyl)carbamoyl]-2'-cyclopropylspiro[cyclohexane-1,3'-indol]-1'(2'H)-yl}sulfonyl)benzoic acid] | 805
23 | COC(=O)c1cccc(S(=O)(=O)N2c3ccc(C(=O)NCc4ncccc4Cl)cc3C3(CCCCC3)C2C2CC2)c1 (centres unmarked) [Example 11, methyl 3-{[5'-{[(3-chloropyridin-2-yl)methyl]carbamoyl}-2'-cyclopropylspiro[cyclohexane-1,3'-indol]-1'(2'H)-yl]sulfonyl}benzoate] | 1220
